Reference: patent publication US8835644B2, “Broad spectrum benzothiophene-nitrothiazolide and other antimicrobials” (University of Virginia Patent Foundation, priority 2009, dated 2014)
Values after ≈ are worked out from the molar mass of the structure shown.

Assays:
S. epidermidis biofilm = S. epidermidis biofilm assay (activity tables); assay type: cell-based, Staphylococcus epidermidis
In short: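 Overnight TSB cultures diluted to OD600 0.01 and grown static with compound (triplicate) at 37° C for 16 h; turbidity recorded for growth. Biofilm: washed wells ethanol-fixed, stained with 0.5% crystal violet, A570 read before and after 95% ethanol extraction; mean ± SD.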

[1] = system: EAEC strains 042 and 17-2; settings: previous studies (38), cited from earlier work

Structure (SMILES): CC(=O)Oc1ccccc1C(=O)Nc1ncc([N+](=O)[O-])s1 [Nitazoxanide, 2-(acetyloxy)-N-(5-nitro-2-thiazolyl)benzamide, reference compound]
- MIC (μM) S. epidermidis Biofilm (S. epidermidis biofilm): 32.5 µM (≈ 9.99 µg/mL)
- MIC S. epidermidis Biofilm (S. epidermidis biofilm; 2-amino-3,5-dinitrothiophene analogues table): 32.5 µM (≈ 9.99 µg/mL)
- MIC S. epidermidis Biofilm (S. epidermidis biofilm; Furan analogues table): 32.5 µM (≈ 9.99 µg/mL)
- MIC S. epidermidis Biofilm (S. epidermidis biofilm; Thiophene analogues table): 32.5 µM (≈ 9.99 µg/mL)
- Concentrations inhibitory for growth on MinA base medium ([1]; E. coli papillation assay): higher than 15 μg/ml
- MIC in LB medium, previous studies [1]: > 64 µg/mL
